According to patent EP0377642B1, “HERBICIDES FOR WEED CONTROL IN RICE” (E.I. DU PONT DE NEMOURS AND COMPANY, priority 1987, dated 1989):
Like-named read-outs stand apart in the source and are kept apart here.

Assays:
Type in all cases: in vivo
rice [1] = experiment: Effects on rice growth in Thailand, phytotoxicity (Table 2); settings: 600 GAI/HA, scale 0-10
Text: (§1) Methyl 2-[[[[(4-methoxy-6-methyl-1,3,5-triazin-2-yl)amino]carbonyl]amino]sulfonyl]benzoate (Compound 1) and mixtures thereof with other compounds were applied as a spray (using a hand sprayer) to rice (either transplanted or direct seeded) in several rice growing areas in Southeast Asia and in the U.S. Tables 1-28 contain the results of these tests and clearly exemplify the utility of this invention. The details of each application are included in the appropriate table. [drawing 2]

FIMBRISTYLIS MILIACEA [2] = experiment: Herbicidal efficacy alone and with 2,4-D in Thailand (Table 3); settings: 600 GAI/HA, 6 weeks after application
Text: as §1

rice [3] = experiment: Effects on rice growth in Thailand, phytotoxicity (Table 4); settings: 600 GAI/HA, scale 0-10
Text: as §1

direct seeded rice = settings: 1,500 GM.A.I./HA; for PHYTO at 2WAA: scale 0-10
Text: as §1

Cyperus difformis [4] = experiment: Field test applied at 7 DAS in direct seeded rice (Table 11); settings: 1,500 GM.A.I./HA, scale 0-10
Text: as §1

Sphenoclea zeylanica [5] = experiment: as above; settings: 1,500 GM.A.I./HA, scale 0-10
Text: as §1

Cyperus iria [6] = experiment: Field test applied at 18 DAS in direct seeded rice (Table 12); settings: 1,500 GM.A.I./HA, scale 0-10
Text: as §1

FIMBRISTYLIS MILIACEA [7] = experiment: as above; settings: 1,500 GM.A.I./HA, scale 0-10
Text: as §1

Jussiaea linifolia = experiment: as above; settings: 1,500 GM.A.I./HA, scale 0-10
Text: as §1

Sphenoclea zeylanica [8] = experiment: as above; settings: 1,500 GM.A.I./HA, scale 0-10
Text: as §1

Cyperus iria [9] = experiment: Field test applied at 25 DAS in direct seeded rice (Table 13); settings: 1,500 GM.A.I./HA, scale 0-10
Text: as §1

Sphenoclea zeylanica [10] = experiment: as above; settings: 1,500 GM.A.I./HA, scale 0-10
Text: as §1

Cyperus difformis [11] = experiment: Herbicidal efficacy alone and with 2,4-D in Malaysia, applied 30 days after seeding (Table 8); settings: 22 days after treatment
Text: as §1

FIMBRISTYLIS MILIACEA [12] = experiment: as above; settings: 22 days after treatment
Text: as §1

Marsilea crenata = experiment: as above; settings: 22 days after treatment
Text: as §1

Monochoria vaginalis [13] = experiment: as above; settings: 22 days after treatment
Text: as §1

Scirpus grossus = experiment: as above; settings: 22 days after treatment
Text: as §1

Sphenoclea zeylanica [14] = experiment: as above; settings: 22 days after treatment
Text: as §1

Cyperus difformis [15] = experiment: Herbicidal efficacy with Bensulfuron methyl and 2,4-D in Thailand (Table 18); settings: 1500 GAI/HA; 13 days after treatment
Text: as §1

Ludwigia linifolia [16] = experiment: as above; settings: 1500 GAI/HA; 13 days after treatment
Text: as §1

Sphenoclea zeylanica [17] = experiment: as above; settings: 1500 GAI/HA; 13 days after treatment
Text: as §1

rice [18] = experiment: as above; settings: 1500 GAI/HA; 13 days after treatment
Text: as §1

Cuperus difformis = experiment: Herbicidal efficacy with Bensulfuron methyl and 2,4-D in Thailand (Table 19); settings: 1500 GAI/HA; 13 days after treatment
Text: as §1

Ludwigia linifolia [19] = experiment: as above; settings: 1500 GAI/HA; 13 days after treatment
Text: as §1

Sphenoclea zeylanica [20] = experiment: as above; settings: 1500 GAI/HA; 13 days after treatment
Text: as §1

rice [21] = experiment: as above; settings: 1500 GAI/HA; 13 days after treatment
Text: as §1

Cuperus iria = experiment: Herbicidal efficacy with Bensulfuron methyl and 2,4-D in Thailand (Table 20); settings: 1500 GAI/HA; 14 days after treatment
Text: as §1

FIMBRISTYLIS MILIACEA [22] = experiment: as above; settings: 1500 GAI/HA; 14 days after treatment
Text: as §1

Ludwigia linifolia [23] = experiment: as above; settings: 1500 GAI/HA; 14 days after treatment
Text: as §1

Sphenoclea zeylanica [24] = experiment: as above; settings: 1500 GAI/HA; 14 days after treatment
Text: as §1

rice [25] = experiment: as above; settings: 1500 GAI/HA; 14 days after treatment
Text: as §1

FIMBRISTYLIS MILIACEA [26] = experiment: Herbicidal efficacy with 2,4-D in Malaysia (Table 21); settings: 1000 GAI/HA; 42 days after treatment
Text: as §1

Ludwigia adscendens = experiment: as above; settings: 1000 GAI/HA; 42 days after treatment
Text: as §1

Masilea crenata = experiment: as above; settings: 1000 GAI/HA; 42 days after treatment
Text: as §1

Monochoria vaginalis [27] = experiment: as above; settings: 1000 GAI/HA; 42 days after treatment
Text: as §1

Saggittaria guayanensis = experiment: as above; settings: 1000 GAI/HA; 42 days after treatment
Text: as §1

Scirpus spp. = experiment: as above; settings: 1000 GAI/HA; 42 days after treatment
Text: as §1
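Wherever YIELD is given: yield in Tons/ha.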

O=C([O-])COc1ccc(Cl)cc1Cl.[Na+] [2,4-D (SODIUM SALT), 2,4-dichlorophenoxyacetic acid, sodium salt]
PHYTOTOXICITY (rice [1]; applied 7 DAS): 2.33
PHYTOTOXICITY (rice [1]; applied 14 DAS): 1.33
PHYTOTOXICITY (rice [1]; applied 21 DAS): 0
PHYTOTOXICITY (rice [1]; applied 28 DAS): 0
FIMBRISTYLIS MILIACEA CONTROL (FIMBRISTYLIS MILIACEA [2]; applied 7 DAS): 96%
FIMBRISTYLIS MILIACEA CONTROL (FIMBRISTYLIS MILIACEA [2]; applied 14 DAS): 95%
FIMBRISTYLIS MILIACEA CONTROL (FIMBRISTYLIS MILIACEA [2]; applied 21 DAS): 93%
FIMBRISTYLIS MILIACEA CONTROL (FIMBRISTYLIS MILIACEA [2]; applied 28 DAS): 98%
PHYTOTOXICITY (rice [3]; applied 7 DAS): 5.0
PHYTOTOXICITY (rice [3]; applied 14 DAS): 3.67
PHYTOTOXICITY (rice [3]; applied 21 DAS): 3.0
PHYTOTOXICITY (rice [3]; applied 28 DAS): 1
YIELD (direct seeded rice; 7 DAS): 4.13 TONS/HA
PHYTO at 2WAA (direct seeded rice; 7 DAS): 0
YIELD (direct seeded rice; 18 DAS): 4.59 TONS/HA
PHYTO at 2WAA (direct seeded rice; 18 DAS): 0
WEED CONTROL at 6 WAA CD (Cyperus difformis [4]): 10
WEED CONTROL at 6 WAA SZ (Sphenoclea zeylanica [5]): 6.0
WEED CONTROL at 6 WAA CI (Cyperus iria [6]): 9.33
WEED CONTROL at 6 WAA FM (FIMBRISTYLIS MILIACEA [7]): 9.33
WEED CONTROL at 6 WAA JL (Jussiaea linifolia): 10
WEED CONTROL at 6 WAA SZ (Sphenoclea zeylanica [8]): 4.67
WEED CONTROL at 6 WAA CI (Cyperus iria [9]): 10
WEED CONTROL at 6 WAA SZ (Sphenoclea zeylanica [10]): 6.67

O=C(O)COc1ccc(Cl)cc1Cl [2,4-D, 2,4-dichlorophenoxyacetic acid]
% CONTROL CD (Cyperus difformis [11]; 500 GAI/HA): 95%
% CONTROL CD (Cyperus difformis [11]; 1000 GAI/HA): 100%
% CONTROL FM (FIMBRISTYLIS MILIACEA [12]; 500 GAI/HA): 100%
% CONTROL FM (FIMBRISTYLIS MILIACEA [12]; 1000 GAI/HA): 100%
% CONTROL MC (Marsilea crenata; 500 GAI/HA): 0%
% CONTROL MC (Marsilea crenata; 1000 GAI/HA): 0%
% CONTROL MV (Monochoria vaginalis [13]; 500 GAI/HA): 90%
% CONTROL MV (Monochoria vaginalis [13]; 1000 GAI/HA): 100%
% CONTROL SG (Scirpus grossus; 500 GAI/HA): 50%
% CONTROL SG (Scirpus grossus; 1000 GAI/HA): 75%
% CONTROL SZ (Sphenoclea zeylanica [14]; 500 GAI/HA): 100%
% CONTROL SZ (Sphenoclea zeylanica [14]; 1000 GAI/HA): 100%
% CONTROL OR INJURY CD (Cyperus difformis [15]): 100%
% CONTROL OR INJURY LL (Ludwigia linifolia [16]): 100%
% CONTROL OR INJURY SZ (Sphenoclea zeylanica [17]): 90%
% CONTROL OR INJURY RICE (rice [18]): 0%
% CONTROL OR INJURY CD (Cuperus difformis): 100%
% CONTROL OR INJURY LL (Ludwigia linifolia [19]): 97%
% CONTROL OR INJURY SZ (Sphenoclea zeylanica [20]): 86%
% CONTROL OR INJURY RICE (rice [21]): 0%
% CONTROL OR INJURY CI (Cuperus iria): 100%
% CONTROL OR INJURY FM (FIMBRISTYLIS MILIACEA [22]): 100%
% CONTROL OR INJURY LL (Ludwigia linifolia [23]): 100%
% CONTROL OR INJURY SZ (Sphenoclea zeylanica [24]): 33.3%
% CONTROL OR INJURY RICE (rice [25]): 0%
% CONTROL OR INJURY FM (FIMBRISTYLIS MILIACEA [26]): 73%
% CONTROL OR INJURY LA (Ludwigia adscendens): 93%
% CONTROL OR INJURY MC (Masilea crenata): 56%
% CONTROL OR INJURY MV (Monochoria vaginalis [27]): 100%
% CONTROL OR INJURY SG (Saggittaria guayanensis): 74%
% CONTROL OR INJURY SS (Scirpus spp.): 55%
